Calls of active or inactive are those of the source.
Experiments:
[1] = M. tuberculosis growth inhibition, HTS (AID 449762); format: functional
[2] = viability of PTEN-deleted HCT116 cells – cell-based, HCT116 PTEN knockout, dose response (AID 1047); format: functional;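 also: HCT116 colon tumor cells with PTEN knocked out; cells exposed to compound for 60 hours before readout; potency for loss of cell viability measured by luminescence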
[3] = test system: Vero; assay: mammalian cell viability reduction – secondary assay, cytotoxicity control for West Nile virus antiviral project, dose response (AID 1650); format: functional; conditions: Chlorocebus sabaeus
[4] = viability of HCT116 lacking mutant beta-catenin – cell-based, human colon tumor, dose response (AID 1045); format: functional;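 also: HCT116 colon tumor cells with beta catenin knocked out; cells exposed to compound for 60 hours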
[5] = Luminescence Cell-Based Dose Response HTS to Identify Inhibitors of 5'UTR Stem-Loop Driven Prion Protein mRNA Translation in H4 Neuroglioblastoma Cells. [Related pubchem assays: 1827 (Project Summary), 1813 (Primary HTS)]; format: functional
[6] = luciferase reporter signal suppression in cells – H4 neuroglioma cells, luminescence, dose response (AID 1990); format: functional, cell-based
[7] = viability loss in Vero cells – cytotoxicity control for Vif-APOBEC3G degradation inhibitor project, dose response (AID 1117358); format: functional; conditions: Vero
[8] = alpha-synuclein stem-loop luciferase translation blockers – H4 neuroglioma cells, luminescence, confirmation (AID 1988); format: functional, cell-based
[9] = molecular target: Heat shock protein HSP 90-alpha (Homo sapiens, UniProt P07900); assay: Luminescence-based dose response biochemical high throughput screening assay for inhibitors of the Heat Shock Protein 90 (HSP90). [Related pubchem assays: 1831 (Summary AID.), 1846 (Confirmation screen.), 1789 (Primary screen.)]
[10] = blockers of HIV-1 ZM109 envelope-driven cell-cell fusion – HeLa effector, CEM target cells, luciferase, cherry-pick, dose response (AID 652058); format: functional, cell-based;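 also: luciferase signal from HIV-1 Env mediated cell-cell fusion of effector and target cells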
[11] = off-target signal loss in HeLa-CEM21 co-culture – HeLa F-luc CTL cells, cherry-picked, counter-screen for HIV-1 Env fusion inhibitor project, dose response (AID 652040); format: functional, cell-based;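 also: potency for signal decrease marking cytotoxic or nonspecific inhibition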
[12] = blockade of melanocortin 4 receptor signaling – cell-based, plate reader, cherry pick, counter-screen for LGR2 antagonist project, dose response (AID 743444); format: functional;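 also: transfected HEK 293 cells stimulated with alpha-MSH peptide; potency of inhibitors of the alpha-MSH evoked signal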
[13] = PAX5 cellular inhibition readout – cell-based, plate reader, dry powder samples, selectivity assay for PAX8 inhibitor project, dose response (AID 743047); format: functional;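 also: HEK293 cells carrying a Pax5 driven CD19 promoter luciferase reporter; potency of inhibitors that lower reporter luminescence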
[14] = HEK-293T cell viability reduction – luminescence, B-cell screen hits, cytotoxicity control for BCR NF-kB inhibitor project, dose response (AID 489021); format: functional, cell-based;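 also: HEK-293T cells carrying an NF-kB luciferase reporter; cells exposed to compound for about 14 hours before viability readout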
[15] = PAX8-dependent cell viability loss – plate reader, dry powder, dose response (AID 743049); format: functional, cell-based
[16] = blockers of bursicon-stimulated LGR2 cAMP reporter – cell-based, HEK293, CRE-luciferase reporter, cherry pick, set 2, dose response (AID 743343); format: functional;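 also: transfected cells were stimulated with diluted bursicon conditioned medium after compound addition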
[17] = HIV-1 AD8 envelope cell-cell fusion blockers – cherry-pick, dose response (AID 652062); format: functional, cell-based;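 also: luciferase signal from cell-cell fusion driven by HIV-1 clade B AD8 Env; potency is for inhibitors of fusion seen as a drop in luminescence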
[18] = molecular target: Paired box protein Pax-8 (Homo sapiens, UniProt Q06710); assay: PAX8 transcriptional activity inhibition in RMG-I – RMG-I cells, luciferase, cherry-pick, dose response (AID 687027); format: functional, cell-based;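 also: luciferase reporter driven by Pax8 target thyroperoxidase promoter measured by SteadyGlo luminescence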
[19] = blockers of HIV-1 envelope-mediated cell-cell fusion – cherry-pick, dose response (AID 652057); format: functional, cell-based
[20] = inhibitors acting on PAX2 in cells – cell-based, plate reader, dry powder samples, selectivity assay for PAX8 inhibitor project, dose response (AID 743048); format: functional;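 also: HEK293 cells carrying a WT1 promoter luciferase reporter driven by expressed Pax2; potency is for inhibition of Pax2 driven reporter signal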

Sequence of Paired box protein Pax-8 (Q06710 whole entry, the tested form may be a part): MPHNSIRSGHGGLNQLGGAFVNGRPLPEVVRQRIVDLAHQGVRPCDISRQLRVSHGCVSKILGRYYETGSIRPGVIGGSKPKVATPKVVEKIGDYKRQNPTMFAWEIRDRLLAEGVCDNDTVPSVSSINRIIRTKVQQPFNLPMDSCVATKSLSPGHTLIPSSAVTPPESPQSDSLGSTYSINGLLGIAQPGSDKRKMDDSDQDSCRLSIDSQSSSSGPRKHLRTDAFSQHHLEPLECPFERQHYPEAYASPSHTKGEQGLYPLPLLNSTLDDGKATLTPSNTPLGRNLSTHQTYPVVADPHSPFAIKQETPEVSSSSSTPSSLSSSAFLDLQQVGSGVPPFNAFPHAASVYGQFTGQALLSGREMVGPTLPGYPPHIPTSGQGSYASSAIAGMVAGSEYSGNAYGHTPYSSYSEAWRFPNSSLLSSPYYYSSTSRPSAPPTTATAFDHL

CCCc1ncc(CN2CCCC(C(=O)Nc3ccc(-c4cccc(OC)c4)cc3)C2)cn1 (centres undefined)
IC50 [1]: > 100 µM (active)

COc1ccc(-c2cc(-c3ccc(C)cc3)nc(SCc3nnc(-c4ccccc4)o3)c2C#N)cc1OC
EC50 [2]: 4.41 µM (active) | CC50 [3]: 14.1 µM (active) | EC50 [4]: 4.36 µM (active)

COc1cc(NC(=O)NCCN2CCN(c3ccc(Cl)cc3)CC2)ccc1C
EC50 [5]: > 120 µM (not active) | EC50 [6]: 20.5 µM (active) | CC50 [7]: > 40 µM (active) | EC50 [8]: > 120 µM (not active)

CC(=O)CSc1nnc(-c2ccc3c(c2)OCO3)o1
IC50 [9]: 9.39 µM (active)

O=C(CN1C(=O)c2ccccc2S1(=O)=O)c1ccccc1Cl
AC50 [10]: 12.5 µM (active) | EC50 [5]: 0.364 µM (active) | AC50 [11]: 1.52 µM (active) | AC50 [12]: 0.805 µM (active) | AC50 [13]: 7.1 µM (active) | EC50 [6]: 0.283 µM (active) | IC50 [14]: > 80 µM (inactive) | AC50 [15]: > 100 µM (inactive) | AC50 [16]: 0.665 µM (active) | AC50 [17]: 4.22 µM (active) | EC50 [8]: 0.104 µM (active) | AC50 [18]: 7.18 µM (active) | IC50 [9]: 4.2 µM (active) | AC50 [19]: 2.17 µM (active) | AC50 [20]: 9.61 µM (active)

From ChEMBL document CHEMBL1201862, “PubChem BioAssay data set” (2004)
